# Tested on: MDA-MB-231 human breast cancer cells
# Assay: Cell proliferation assay (CellTiter-Glo, 72 hours treatment)
# Format: cell-based
# Conditions: Homo sapiens; MDA-MB-231 cells, 72 hours at 37° C., CellTiter-Glo; read-out: MDA-MB-231 cell proliferation assay (IC50)
# Protocol: Human tumor cell lines were cultured in the appropriate media (DMEM and RPMI) supplemented with penicillin G (100 U/ml), streptomycin (100 μg/ml), 10% FBS in a humidified atmosphere of 5% CO2 maintained at 37° C. Exponentially growing cells were seeded at 2,500 cells/well in 96 well plates prior to drug treatment. The following day, cells were treated with either DMSO (vehicle control) or eIF4A inhibitors at the appropriate dose for 72 hours at 37° C. Following compound treatment, cell proliferation was assessed by CellTiter-Glo assay (Promega, Madison Wis.) according to the manufacturer's protocol. Dose-response curves were fitted by non-linear regression (sigmoidal dose response model) using KaleidaGraph (Synergy Software, Reading Pa.) and IC50 values were calculated.
# To this end, IC50 values of less than 100 nM are labelled as “+++”, from 100 nM to 1000 nM are labelled as “++”, and greater than 1000 nM are labelled as “+” (NA means “not available”).
row,Compound,IC50 [nM]
1,"N#Cc1ccc([C@@]23Oc4cc(Cl)cnc4[C@]2(O)[C@H](O)[C@H](CO)[C@H]3c2ccccc2)cc1 (racemic) [56F, Rac-4-((5aR,6S,7S,8R,8aS)-3-chloro-8,8a-dihydroxy-7-(hydroxymethyl)-6-phenyl-6,7,8,8a-tetrahydro-5aH-cyclopenta[4,5]furo[3,2-b]pyridin-5a-yl)benzonitrile]",> 1000
2,"COc1cncc2c1[C@]1(O)[C@H](O)[C@H](CN3CCC(F)(F)C3)[C@@H](c3ccccc3)[C@]1(c1ccc(C#N)cc1)O2 (single isomer, unassigned) [280F]",100 to 1000
3,"COc1cncc2c1[C@]1(O)[C@H](O)[C@H](C(=O)N(C)C3CC3)[C@@H](c3ccccc3)[C@]1(c1ccc(Br)cc1)O2 (racemic) [245F, Rac-(4bS,5R,6R,7S,7aR)-7a-(4-bromophenyl)-N-cyclopropyl-4b,5-dihydroxy-4-methoxy-N-methyl-7-phenyl-4b,6,7,7a-tetrahydro-5H-cyclopenta[4,5]furo[2,3-c]pyridine-6-carboxamide]",100 to 1000
4,"COc1cncc2c1[C@]1(O)[C@H](O)[C@H](CN3CC4CC(C3)O4)[C@@H](c3ccccc3)[C@]1(c1ccc(C#N)cc1)O2 (single isomer, unassigned) [274F]",100 to 1000
5,"COc1cncc2c1[C@]1(O)[C@H](O)C(CN3CCN(C)CC3)[C@@H](c3ccccc3)[C@]1(c1ccc(C(F)(F)F)cc1)O2 (single isomer, unassigned) [284F]",100 to 1000
6,"NC(=S)[C@H]1[C@@H](O)[C@@]2(O)c3ncc(Cl)cc3O[C@@]2(c2ccc(Br)cc2)[C@@H]1c1ccccc1 (racemic) [28F, Rac-(5aR,6S,7R,8R,8aS)-5a-(4-bromophenyl)-3-chloro-8,8a-dihydroxy-6-phenyl-5a,7,8,8a-tetrahydro-6H-cyclopenta[4,5]furo[3,2-b]pyridine-7-carbothioamide]",100 to 1000
7,"COc1cncc2c1[C@]1(O)[C@H](O)[C@H](C(=O)N(C)C)[C@@H](c3ccccc3)[C@]1(c1ccc(C#N)cc1)O2 (single isomer, unassigned) [64F]",< 100
8,"COc1nc(C#N)cc2c1[C@]1(O)[C@H](O)[C@H](CN(C)CC(F)F)[C@@H](c3ccccc3)[C@]1(c1ccc(C#N)cc1)O2 (racemic) [208Fa, Rac-(5aR,6S,7S,8R,8aS)-5a-(4-cyanophenyl)-7-(((2,2-difluoroethyl)(methyl)amino)methyl)-8,8a-dihydroxy-1-methoxy-6-phenyl-5a,7,8,8a-tetrahydro-6H-cyclopenta[4,5]furo[3,2-c]pyridine-3-carbonitrile]",100 to 1000
9,"COc1cc2c(c(OC)n1)[C@]1(O)[C@H](O)[C@H](C(=O)N(C)C)[C@@H](c3ccccc3)[C@]1(c1ccc(Br)cc1)O2 (racemic) [229F, rac-(5aR,6S,7R,8R,8aS)-5a-(4-bromophenyl)-8,8a-dihydroxy-1,3-dimethoxy-N,N-dimethyl-6-phenyl-5a,7,8,8a-tetrahydro-6H-cyclopenta[4,5]furo[3,2-c]pyridine-7-carboxamide]",< 100
10,"COc1cncc2c1[C@]1(O)[C@H](O)[C@H](CCN(C)C)[C@@H](c3ccccc3)[C@]1(c1ccc(C#N)cc1)O2 (racemic) [276F, Rac-4-((4bS,5R,6R,7S,7aR)-6-(2-(dimethylamino)ethyl)-4b,5-dihydroxy-4-methoxy-7-phenyl-4b,5,6,7-tetrahydro-7aH-cyclopenta[4,5]furo[2,3-c]pyridin-7a-yl)benzonitrile]",100 to 1000
11,"N#Cc1ccc([C@@]23Oc4cc(Cl)cnc4[C@]2(O)[C@H](O)[C@H](S(=O)(=O)Cc2ccccc2)[C@H]3c2ccccc2)cc1 (racemic) [94F, Rac-4-((5aR,6S,7R,8S,8aS)-7-(benzylsulfonyl)-3-chloro-8,8a-dihydroxy-6-phenyl-6,7,8,8a-tetrahydro-5aH-cyclopenta[4,5]furo[3,2-b]pyridin-5a-yl)benzonitrile]",> 1000

# — patent publication US10577378B2, “EIF4A-inhibiting compounds and methods related thereto” (eFFECTOR Therapeutics, Inc., priority 2015, dated 2020)
